Assays:
[1] = system: poloxamer 407 induced hyperlipidemia; assay: Anti-triglyceridemia potential, poloxamer 407 rats (Example 6); format: in vivo, female Wistar rats
Procedure: For the experiment, female Wistar rats, 7 weeks old, weighing 125-150 g. were purchased from Charles River Canada. Rats were randomized into 4 different groups, each composed of at least 6 animals. […] They were housed under specific pathogen-free conditions and maintained in a […] light/dark cycle. All animals consumed standard diet and received water ad libitum. MPM was in a lyophilized form and prepared daily by adding 80% of water and mixed to create back a yoghurt-like product. The bacterial strain Lactobacillus […] was routinely cultured in MRS broth (BD Biosciences, Mississauga, ON, Canada) at 37° C. for a period of 24 h. Bacteria were then pelleted by centrifugation at 4000 rpm for 8 minutes and re-suspended at a concentration of 10^9 cells/mL in sterile PBS (Invitrogen). Niacin was dissolved in water in order for the rats to receive a dose of 100 mg of treatment per kg. […] The poloxamer 407 solution for intraperitoneal (i.p.) injection was prepared by combining the agent with sterile water and refrigerating overnight to facilitate dissolution of the polymer by the cold method of incorporation. […] Approximately 1 mL of blood was collected from the jugular vein in 3 mL syringes and immediately transferred in lithium-heparinized plastic tubes (Sarstedt, Montreal, QC, Canada). Tubes were lightly shaken for 10 seconds, and then centrifuged to allow separation of the plasma. Plasma samples were collected in clean 1.5 mL eppendorf and immediately frozen at -80° C. until the time of analysis. For blood collection, each animal was anesthetized using isoflurane (AErrane, Baxter Corporation, Deerfield, Ill., USA). […] Animals were sacrificed after the last blood collection by the CO2 asphyxia method. […] Samples from all experimental groups were analyzed for total cholesterol and triglycerides. All analysis were performed in an independent laboratory (Laboratoire medical Biron, 4105-[…] Blvd, Brossard, Québec, Canada, J4Y 2P4), ISO 9002 certified, offering a reliable plasma lipids quantification service.

[2] = system: poloxamer 407 induced hyperlipidemia; assay: Poloxamer 407 rat model of hyperlipidemia (strains); format: in vivo, Wistar rats
Procedure: (§1) The different bacterial strains were tested for their capacity to regulate blood lipid levels in a rat model of hyperlipidemia. […] Wistar rats injected i.p. with poloxamer 407 rapidly develop severe but transient hyperlipidemia. […] The hypo-lipidemic effect of L. kefiranofaciens strains is evaluated in groups of rats pre-treated orally for 7 days before injection of poloxamer. Blood lipids were measured before injection and at 24 and 72 hours following induction of hyperlipidemia. Plasma levels of triglycerides, and cholesterol (LDL) were evaluated.
Group 1: 4 rats, gavage saline Group 2: 4 rats, gavage niacin (100 mg/kg) Group 3: 4 rats, gavage R2C2 (1×10^8 cfu/ml) Group 4: 4 rats, gavage INIX (1×10^8 cfu/ml) Group 5: 4 rats, gavage BioSP (1×10^8 cfu/ml) Group 6: 4 rats, gavage K2 (1×10^8 cfu/ml)

[3] = system: poloxamer 407 induced hyperlipidemia; assay: Model of hyperlipidemia, poloxamer 407 (Example 8a); format: in vivo, Wistar rats
Procedure: as §1, with “whey fermented with L. kefiranofaciens R2C2 was” for “different bacterial strains were”, “triglycerides, cholesterol, HDL, LDL” for “triglycerides,”, “glucose” for “cholesterol (LDL)”
Group 1: 4 rats, gavage saline Group 2: 4 rats, gavage niacin (100 mg/kg) Group 3: 4 rats, gavage whey fermented with L. kefiranofaciens R2C2 (1 ml per gavage)

[4] = system: diet-induced hyperlipidemia and weight gain; assay: Model of hypertriglyceridemia and obesity (fructose 10% in drinking water); format: in vivo, Wistar rats
Procedure: The whey fermented with L. kefiranofaciens […] was tested for its capacity to regulate weight gain and blood lipid levels in a diet-induced rat model of hyperlipidemia. This protocol allows a comparison to niacin (vitB3) in regulating diet-induced hyperlipidemia in rats. […] The hypo-lipidemic effects of the whey fermented with L. kefiranofaciens […] during the fructose treatment period were evaluated. Blood samples are collected before the start of fructose treatment, and once a week for 4 weeks during the induction of hyperlipidemia. Serum levels of triglycerides were measured.

[5] = system: visceral fat in Spontaneous Hypertensive Rat; assay: Weight and fat management, SHR model (visceral fat); format: in vivo, SHR rats; conditions: once a day for 56 days, saline 100
Procedure: The whey fermented with L. kefiranofaciens R2C2 was tested for its capacity to regulate fat distribution as well as weight gain in the Spontaneous Hypertensive Rat model and in ovariectomized rats. The SHR model was used as previously described but used to monitor the levels of visceral fat accumulating in the belly following. The animals were fed with 1 ml of whey fermented with L. kefiranofaciens R2C2 (20% solid) once a day for 56 days (P.O. q1×56)
Group 1: 12 rats, gavage saline Group 2: 12 rats, gavage niacine (100 mg/kg) Group 3: 12 rats, gavage whey fermented with L. kefiranofaciens R2C2 (1 ml per gavage)

[6] = system: oxazolone-induced atopic contact dermatitis; assay: Atopic contact dermatitis, therapeutic protocol (R2C2); format: in vivo, mice
Excerpt: A murine model of atopic contact dermatitis induced with oxazolone in mice was used to determine the anti-inflammatory effect of the whey fermented with Lactobacillus kefiranofaciens […]. This model of inflammation has proven to be a sensitive and useful tool to determine efficacy and potency of several anti-inflammatory and immunosuppressive drugs used in dermatological disorders like psoriasis for example. Drugs like glucocorticoids are commonly used to relieve skin and joint inflammation. Whey fermented with […] administered orally either in a prophylactic (Table 24) or therapeutic fashion (Table 23) reduced the inflammation as shown with a reduction of around 30% of ear and thickness in both cases. In more details, the murine model of atopic contact dermatitis was based on those firstly described by Garrigue et al. (Contact Dermatitis., 30(4):[…], 1994) and modified as follows: the CD-1 mice's abdomen were removed of hair and the sensitization phase was done with the application of 100 microliters of oxazolone 5% in acetone on the abdomen (Sigma-Aldrich, Oakville, On). After 4 days, the elicitation phase (first challenge) was done with application of 50 microliters of oxazolone 5% in acetone on the right ear (25 microliters each side of the ear). The second challenge was done 7 days after the first challenge with the same procedure. The ear thickness of the mice was measured every day. The therapeutic anti-inflammatory potential of […] was evaluated in an animal model of atopic contact dermatitis by feeding the bacterial suspension after the first challenge. The protective effect of […] was compared to that of hydrocortisone, because of its well-known anti-inflammatory effects on dermatitis.

[7] = system: oxazolone-induced atopic contact dermatitis; assay: Atopic contact dermatitis, therapeutic protocol (MPM); format: in vivo, CD-1 mice; conditions: Treatment of atopic contact dermatitis (day 17); Controls 0.55
Excerpt: (§2) A murine model of atopic contact dermatitis induced with oxazolone in mice was used to determine the anti-inflammatory effect of the whey fermented with Lactobacillus kefiranofaciens […]. This model of inflammation has proven to be a sensitive and useful tool to determine efficacy and potency of several anti-inflammatory and immunosuppressive drugs used in dermatological disorders like psoriasis for example. Drugs like glucocorticoids are commonly used to relieve skin and joint inflammation. Whey fermented with […] administered orally either in a prophylactic (Table 24) or therapeutic fashion (Table 23) reduced the inflammation as shown with a reduction of around 30% of ear and thickness in both cases. […] The ear thickness of the mice was measured every day. The prophylactic anti-inflammatory potential of MPM (patent PCT/CA2002/01988) was evaluated firstly by the administration of MPM, 7 days prior to sensitization. […] Dermatitis was induced as described previously and ear thickness was measured every day. The therapeutic anti-inflammatory potential of MPM was evaluated by the administration of MPM only after the first challenge. […] The mouse atopic contact dermatitis was done as described previously and ear thickness was measured every day. The mice's weight was measured twice a week.

[8] = system: oxazolone-induced atopic contact dermatitis; assay: Atopic contact dermatitis, prophylactic protocol (MPM); format: in vivo, CD-1 mice; conditions: Protection against atopic contact dermatitis (day 9); Controls 0.45
Excerpt: as §2

[9] = system: systolic blood pressure of SHR rats; assay: Anti-hypertensive potential in SHR rats (tail-cuff SBP); format: in vivo, SHR female rats
Procedure: Anti-hypertensive potential of whey fermented with […] (MPM) was evaluated by using SHR female rats (6 weeks old). 12 rats were randomized according to their weight in each treatment group. They were housed under specific pathogen-free conditions and maintained in a 12 hour-light/dark cycle. All animals consumed standard diet and received water ad libitum. Groups were forced-fed daily either 1 mL of water (placebo group), MPM (5 mL/kg) or Enalapril-malate (10 mg/kg), because of its well-known hypotensive effects. Systolic blood pressure (SBP) was measured weekly by the tail-cuff method with the automated RTBP2000 Tail Blood Pressure system (Kent Scientific, Torrington, Conn., USA). Data collections were made weekly and an average of 3 measurements was taken as initial mean SBP. Data was acquired and analysed with Biopac Student Lab Pro® software version 3.6.1 (Biopac System, Goleta, Calif., USA). […] A steady decrease of the SBP was observed every week with a maximum change of at least 25% at week 4 for the animals forced-fed with MPM.

[10] = system: DSS-induced intestinal inflammation; assay: Effect of live, pasteurized or irradiated bacteria on DSS intestinal inflammation; format: in vivo, C57BL/6 mice
Procedure: C57BL/6 mice were treated by gavage (p.o.) with 10^8 cfu/ml of different L. kefiranofaciens strains once per day for the duration of the experiment. Animals received the strains R2C2 or BioSP as live, pasteurized or irradiated bacteria. Intestinal inflammation was induced by the addition of DSS (2.5%) to the drinking water for 8 days and then replaced with fresh water for 8 days to evaluate the rapidity of recovery process from inflammation for the different treatment groups. The level and progression of inflammation was evaluated through measurements of weight variation and combined scores of diarrhea and occult blood. Colon length and myeloperoxidase (MPO) activity in the colon were also evaluated at the end of the experiment.

[11] = plasma, before poloxamer, saline 1.55

## O=C(O)c1cccnc1 [Niacin, niacin]
[1]; cholesterol, Controls 100
  CH levels (72 hours post induction of hyperlipidemia) (%): 33%
[1]; plasma, before poloxamer 407, Controls 1.83
  Triglyceride levels (7-day treatment): 1.00 mmol/L
[1]; plasma, Controls 95.42
  Triglyceride levels (72 hours post induction of hyperlipidemia): 66.96 mmol/L
[2]; before poloxamer
  Plasma triglycerides after pre-treatment of 7 days: plasma triglycerides were reduced
[2]; [11]
  Triglycerides (mmol/L) after 7 days of treatment: 0.97 mmol/L
[2]; plasma, saline 95.42
  Triglycerides (mmol/L) 72 h post-induction of hyperlipidemia: 69.96 mmol/L
[2]; rat, in vivo
  Plasma triglycerides 72 hours after induction of hyperlipidemia: most important reduction
[3]; [11]
  Triglycerides (mmol/L) after 7 days of treatment: 0.97 mmol/L
[3]; plasma, saline 97.72
  Triglycerides (mmol/L) 72 h post-induction of hyperlipidemia: 69.96 mmol/L
[3]; rat, in vivo
  Plasma triglycerides after pre-treatment of 7 days: plasma triglycerides were reduced
[4]; Day 0, saline 100
  Levels of triglyceride, % relative to saline on day 0: 100%
[4]; Day 7 of fructose, saline 260
  Levels of triglyceride, % over saline group: 150%
[4]; Day 21 of fructose, saline 270
  Levels of triglyceride, % over saline group: 160%
[5]
  % of animals with visceral fat: 70%

## C[C@]12CCC(=O)C=C1CC[C@@H]1[C@@H]2[C@@H](O)C[C@@]2(C)[C@H]1CC[C@]2(O)C(=O)CO [Hydrocortisone, hydrocortisone]
[6]; Day 15, Controls 0.26
  ear thickness (mm): 0.18 mm
[6]; Day 17, Controls 0.39
  ear thickness (mm): 0.27 mm
[6]; Day 22, Controls 0.34
  ear thickness (mm): 0.15 mm
[7]
  Ear thickness (mm): 0.29 mm
[8]
  Ear thickness (mm): 0.30 mm

## CCOC(=O)[C@H](CCc1ccccc1)N[C@@H](C)C(=O)N1CCC[C@H]1C(=O)O [Enalapril, Enalapril-malate]
[9]; Week 0, Controls 185
  Systolic blood pressure (mm Hg): 184 mm Hg
[9]; Week 1, Controls 181
  Systolic blood pressure (mm Hg): 165 mm Hg
[9]; Week 2, Controls 184
  Systolic blood pressure (mm Hg): 156 mm Hg
[9]; Week 3, Controls 183
  Systolic blood pressure (mm Hg): 154 mm Hg
[9]; Week 4, Controls 187
  Systolic blood pressure (mm Hg): 154 mm Hg

## Nc1ccc(O)c(C(=O)O)c1 [5-ASA]
[10]; Day 5, DSS+saline −1.83
  Weight loss (%) associated with 8 days of DSS exposure: −3.21%
[10]; Day 5 of DSS, DSS+saline 2.25
  Combined occult blood and diarrhea scores (scale of 8): 1.75
[10]; Day 6, DSS+saline −5.23
  Weight loss (%) associated with 8 days of DSS exposure: −3.64%
[10]; Day 6 of DSS, DSS+saline 4.50
  Combined occult blood and diarrhea scores (scale of 8): 3.75
[10]; Day 7, DSS+saline −8.79
  Weight loss (%) associated with 8 days of DSS exposure: −5.90%
[10]; Day 7 of DSS, DSS+saline 6.50
  Combined occult blood and diarrhea scores (scale of 8): 4.25
[10]; Day 8, DSS+saline −13.5
  Weight loss (%) associated with 8 days of DSS exposure: −8.07%
[10]; Day 8 of DSS, DSS+saline 6.50
  Combined occult blood and diarrhea scores (scale of 8): 5.50
[10]; colon, post-mortem, 8 days DSS and 8 days of recovery, no DSS 0.056, DSS+saline 0.226
  MPO activity (U/g of tissue): 0.043 U/g of tissue
[10]; live, pasteurized or irradiated bacteria, 5-ASA comparator
  Protective effect on DSS inflammation: comparable protective effects

Reference: US20140193383A1, “USE OF LACTOBACILLUS KEFIRANOFACIENS AS A PROBIOTIC AND A SYNBIOTIC” (Technologies Biolactis Inc., priority 2005, published 2014)
